What was measured:
PTP1B = molecular target: T1, PTP1B (Homo sapiens, UniProt P18031); assay: Phosphatase activity assay (Bio-Biochem-DiFMUP), PTP1B; assay type: biochemical; details: DiFMUP substrate, room temperature
T1 sequence (P18031 1-435): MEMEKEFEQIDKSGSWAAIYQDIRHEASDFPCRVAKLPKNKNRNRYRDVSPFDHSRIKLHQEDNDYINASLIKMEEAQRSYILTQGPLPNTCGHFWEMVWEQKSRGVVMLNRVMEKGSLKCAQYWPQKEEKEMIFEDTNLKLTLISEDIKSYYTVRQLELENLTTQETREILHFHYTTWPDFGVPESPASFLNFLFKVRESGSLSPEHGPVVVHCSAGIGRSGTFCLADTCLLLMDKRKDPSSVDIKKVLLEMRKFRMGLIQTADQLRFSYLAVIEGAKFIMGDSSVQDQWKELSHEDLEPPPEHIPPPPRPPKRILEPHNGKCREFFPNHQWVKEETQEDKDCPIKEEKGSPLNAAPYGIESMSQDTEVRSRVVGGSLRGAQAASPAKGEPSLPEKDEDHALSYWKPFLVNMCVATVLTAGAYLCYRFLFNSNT
Outline: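 Buffer was 50 mM Bis-Tris pH 6.3, 2 mM EDTA, 5 mM DMH, with 10 μM FDP or DiFMUP substrate, enzyme added last, at room temperature. Fluorescent product was read continuously for 15–30 min (DiFMU ex 360/em 450 nm; FMP ex 440/em 530 nm). Initial rates against 10-point inhibitor series were fitted with a 4-parameter equation to give IC50.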

[1] = test system: B16F10 mouse melanoma cells; assay: MHC expression associated with IFNγ signaling, flow cytometry; assay type: cell-based; details: B16-F10, 3 uM compound, 48 hours, normalized to DMSO/with IFNγ control, read-out: % MHC in cells treated with Compound at 3 uM relative to negative control (DMSO)
Method: B16F10 mouse melanoma cells (ATCC Cat #CRL-6475, Manassas, VA) are seeded at approximately a density of 500 cells per well in a 384-well clear bottom plate (Corning Cat #3765, Corning, 5 NY) in 25 μL total volume of DMEM+10% FBS (Sigma Cat #D6429 and Sigma Cat #F4135, St. Louis, MO). Cells are allowed to adhere overnight at 37° C.+5% CO2. On the following day, 12.5 μL of mouse IFNγ (RD systems Cat #485-MI/CF, Minneapolis, MN) is added to half of the plate (columns 13-24) at a concentration of 2 ng/mL for a final assay concentration of 0.5 ng/mL of IFNγ. Media only (12.5 μL of DMEM+10% FBS) is added to the remainder of the 10 plate (columns 1-12). Next, compounds resuspended in DMSO (Sigma Cat #D2650) at 100 mM are diluted in semi-log dilutions in DMSO ranging from 100 mM to 0.001 mM and DMSO only controls are included. The compound/DMSO dilutions are further diluted 1:250 in DMEM+10% FBS, and 12.5 μL of these dilutions are added in triplicates to cells of both treatment arms (with and without IFNγ). Compounds are only dosed in the inner 240 wells, avoiding the outer 2-well perimeter of the plate to minimize edge effects. Finally, the plate is loaded into an IncuCyte® S3 Live Cell Analysis System (Essen Bioscience-Sartorius, Ann Arbor, MI) maintained in a 37° C.+5% CO2 incubator, allowed to equilibrate for 2 hours, and treated for 48 hours. MHC levels are measured by flow cytometry using a FITC anti-mouse H-2kb antibody (clone AF6-88.5), and levels are normalized based on DMSO/with IFNγ control. Table 7 below summarizes the percentage in MHC expression in cells treated with or without compounds disclosed herein at a specified concentration.

[2] = test system: C57B3L/6 mouse primary T cells; assay: T-cell activation: CD25 expression on primary T cells stimulated with anti-CD3/CD28; assay type: cell-based; details: 10 uM compound, primary T cells stimulated with antibodies to CD3 and CD28
Method: The increase of T cell activation and most importantly T cell function is a strategy for novel immune oncology approaches to promote tumor immunity. In vitro assays using wildtype C57B3L/6 mouse primary T cells are commonly used to assess the impact of compound on T cell activation and function. To assess the ability of compounds disclosed here (e.g., PTPN2 inhibitors) to stimulate T cell activation, primary T cells stimulated with antibodies to CD3 and CD28 are treated with or without exemplary compounds (at 10 uM) disclosed herein are stained with antibodies directed to T-cell activation markers, such as CD25. Additional markers including without limitation CD69, SLAMF6, TIM3, and PD1 can also be employed as a proxy for T cell activation.

Row | SMILES | IC50 (PTP1B) [µM] | activation at 3 µM [1] [%] | % CD25 expression in cells treated with subject compounds relative to negative control (DMSO) [2] [%]
1 | CN(C)CCOc1ccc2cc(O)c(N3CC(=O)NS3(=O)=O)c(F)c2n1 [Compound 178] | ≤ 1 | > 10 | –
2 | CC(C)CCOc1ccc2cc(O)c(N3CC(=O)NS3(=O)=O)c(F)c2n1 [Compound 135, 5-(8-fluoro-6-hydroxy-2-(isopentyloxy)quinolin-7-yl)-1,2,5-thiadiazolidin-3-one 1,1-dioxide] | ≤ 1 | > 10 | 431
3 | CNc1ccc2cc(O)c(N3CC(=O)NS3(=O)=O)c(F)c2n1 [Compound 153] | ≤ 1 | > 10 | –
4 | O=C1CN(c2c(O)cc3ccc(OCC4CCS(=O)(=O)CC4)nc3c2F)S(=O)(=O)N1 [Compound 143] | ≤ 1 | > 10 | 323

Continued, in another order:

Row | IC50 (PTP1B) [µM] | SMILES | activation at 3 µM [1] [%] | % CD25 expression in cells treated with subject compounds relative to negative control (DMSO) [2] [%]
5 | ≤ 1 | CC(C)CCNc1ccc2cc(O)c(N3CC(=O)NS3(=O)=O)c(F)c2n1 [Compound 117] | > 10 | 363
6 | ≤ 1 | COc1ccc2cc(O)c(N3CC(=O)NS3(=O)=O)c(F)c2n1 [Compound 154] | > 10 | –
7 | ≤ 1 | CN1CCCC(COc2ccc3cc(O)c(N4CC(=O)NS4(=O)=O)c(F)c3n2)C1 (stereo not drawn) [Compound 176] | > 10 | 206

— US20240166641A1, “HETEROCYCLES AND USES THEREOF” (Kumquat Biosciences Inc., priority 2021, published 2024)
